Laboratory results from PMC10377643, “Exploration of Bis-Cinnamido-Polyamines as Intrinsic Antimicrobial Agents and Antibiotic Enhancers” (Biomolecules, 2023).

Tests used:
P. aeruginosa ATCC 27853 [1] = test: Antimicrobial MIC, P. aeruginosa; assay type: cell-based; conditions: Pseudomonas aeruginosa, ATCC27853, mean (n = 3)
Procedure: (§1) The susceptibility of bacterial strains S. aureus (ATCC 25923), E. coli (ATCC 25922) and P. aeruginosa (ATCC 27853) to antibiotics and compounds was determined using protocols reported previously. Additional antimicrobial evaluation against MRSA (ATCC 43300), Klebsiella pneumoniae (ATCC 700603), Acinetobacter baumannii (ATCC 19606), Candida albicans (ATCC 90028) and Cryptococcus neoformans (ATCC 208821) was undertaken at the Community for Open Antimicrobial Drug Discovery at The University of Queensland (Australia) according to their standard protocols reported previously.

S. aureus ATCC 25923 = test: Antimicrobial MIC, S. aureus; assay type: cell-based; conditions: Staphylococcus aureus, ATCC25923, mean (n = 3)
Procedure: as §1

P. aeruginosa ATCC 27853 [2] = test: Doxycycline enhancement against P. aeruginosa; assay type: cell-based, Pseudomonas aeruginosa; conditions: doxycycline fixed at 4.5 µM
Procedure: (§2) Antibiotic enhancer concentrations were determined using previously reported protocols.
We then evaluated the set of analogues for the ability to enhance the antibiotic activity of doxycycline against P. aeruginosa ATCC 27853 and of erythromycin against E. coli ATCC 25922 (Table 2). In the case of doxycycline, a fixed concentration of the antibiotic of 4.5 μM, which is twenty-fold lower than the intrinsic MIC 90 μM against this organism, was used. Each of the test compounds was then evaluated at a range of concentrations varying from 3.125 to 50–100 μM, with the upper concentration dependent upon the compounds intrinsic MIC towards P. aeruginosa (Table 1). […] While the observation of cytotoxicity/hemolytic properties of 16a–c, 14f and 13f reduces our interest in these analogues, analogues 13b and 13d were identified as non-toxic and strong enhancers of the action of doxycycline towards P. aeruginosa.

MRSA ATCC 43300 = test: Antimicrobial MIC, MRSA (CO-ADD); assay type: cell-based, methicillin-resistant S. aureus; conditions: Staphylococcus aureus; MRSA ATCC 43300; mean (n = 2); read-out: MIC MRSA
Procedure: as §1

E. coli ATCC 25922 [3] = test: Antimicrobial MIC, E. coli; assay type: cell-based, Escherichia coli; conditions: mean (n = 3)
Procedure: as §1

Cytotoxicity assay = assay type: cell-based, human; conditions: human, HEK293 human embryonic kidney cells, mean (n = 2), read-out: Cytotoxicity (IC50), concentration of compound at 50% cytotoxicity
Procedure: Cytotoxicity assays were conducted using the protocols previously reported.

C. albicans ATCC 90028 = test: Antifungal MIC, C. albicans (CO-ADD); assay type: cell-based; conditions: Candida albicans, ATCC90028, mean (n = 2)
Procedure: as §1

human red blood cells = test: Hemolytic assay; assay type: cell-based; conditions: mean (n = 2)
Procedure: Hemolysis assays were conducted using the protocols previously reported.

[4] = tested on: C. neoformans ATCC 208821; test: Antifungal MIC, C. neoformans (CO-ADD); assay type: cell-based; conditions: Cryptococcus neoformans, ATCC208821, mean (n = 2)
Procedure: as §1

E. coli ATCC 25922 [5] = test: Erythromycin enhancement against E. coli; assay type: cell-based, Escherichia coli; conditions: erythromycin fixed at 10.9 µM (8 µg/mL)
Procedure: as §2

[6] = Escherichia coli, ATCC25922, E. coli ATCC 25922

Row | Compound | MIC (P. aeruginosa ATCC 27853 [1]) [µM] | MIC (S. aureus ATCC 25923) [µM] | Dox/P. a: concentration required to restore doxycycline activity (P. aeruginosa ATCC 27853 [2]) [µM] | Dox/P. a: fold change (intrinsic MIC of test compound / combination MIC) (P. aeruginosa ATCC 27853 [2]) [fold] | MIC (MRSA ATCC 43300) [µM] | MIC (E. coli ATCC 25922 [3]; E. coli ATCC 25922) [µM] | MIC (E. coli ATCC 25922 [3]; [6]) [µM] | IC50 (Cytotoxicity assay) [µM] | MIC (C. albicans ATCC 90028) [µM] | Hemolysis (HC10), concentration of compound at 10% hemolytic activity (human red blood cells) [µM] | MIC [4] [µM] | Eryth/E. c: concentration required to restore erythromycin activity (E. coli ATCC 25922 [5]) [µM] | Eryth/E. c: fold change (intrinsic MIC of test compound / combination MIC) (E. coli ATCC 25922 [5]) [fold]
1 | COc1c(Br)cc(/C=C/C(=O)NCCCNCCCCCCCCCCCCNCCCNC(=O)/C=C/c2cc(Br)c(OC)c(Br)c2)cc1Br.O=C(O)C(F)(F)F.O=C(O)C(F)(F)F [Compound 16f, N^1,N^12-Bis(3-((E)-3-(3,5-dibromo-4-methoxyphenyl)acrylamido)propyl)dodecane-1,12-diaminium 2,2,2-trifluoroacetate] | > 170 | 5.3 | 42.4 | > 4 | ≤ 0.21 | 5.30 | 5.3 | 1.44 | ≤ 0.21 | 0.24 | ≤ 0.21 | 5.30 | 1
2 | COc1ccc(/C=C/C(=O)NCCCNCCCCCCNCCCNC(=O)/C=C/c2ccc(OC)c(Br)c2)cc1Br.O=C(O)C(F)(F)F.O=C(O)C(F)(F)F [Compound 15b, N^1,N^6-Bis(3-((E)-3-(3-bromo-4-methoxyphenyl)acrylamido)propyl)hexane-1,6-diaminium 2,2,2-trifluoroacetate] | > 214 | 6.67 | 53.4 | > 4 | 2.1 |  | 53 | > 34.2 | > 34.1 | 0.99 | ≤ 0.27 | 26.7 | 2
3 | COc1c(Br)cc(/C=C/C(=O)NCCCNCCCCCCNCCCNC(=O)/C=C/c2cc(Br)c(OC)c(Br)c2)cc1Br.O=C(O)C(F)(F)F.O=C(O)C(F)(F)F [Compound 16b, N^1,N^6-Bis(3-((E)-3-(3,5-dibromo-4-methoxyphenyl)acrylamido)propyl)hexane-1,6-diaminium 2,2,2-trifluoroacetate] | > 183 | 5.71 |  | > 16 | ≤ 0.23 |  | 11.4 | 15.6 | 29.2 | 0.91 | ≤ 0.23 | 11.4 | 1
4 | O=C(C=Cc1ccccc1)NCCCNCCCCCCCCCCNCCCNC(=O)C=Cc1ccccc1.O=C(O)C(F)(F)F.O=C(O)C(F)(F)F [Compound 13e, N^1,N^10-Bis(3-cinnamamidopropyl)decane-1,10-diaminium 2,2,2-trifluoroacetate] | 645 | 64.5 | 645 | 1 | 20.6 |  | 645 | 24.3 | > 41.3 | 37.6 | 41.3 | 64.5 | 10
5 | COc1ccc(/C=C/C(=O)NCCCNCCCCCCCCNCCCNC(=O)/C=C/c2ccc(OC)c(Br)c2)cc1Br.O=C(O)C(F)(F)F.O=C(O)C(F)(F)F [Compound 15d, N^1,N^8-Bis(3-((E)-3-(3-bromo-4-methoxyphenyl)acrylamido)propyl)octane-1,8-diaminium 2,2,2-trifluoroacetate] | > 207 | 6.48 | 51.8 | > 4 | ≤ 0.26 |  | 25.9 | 19.7 | 33.2 | 0.52 | ≤ 0.26 | 25.9 | 1
6 | COc1c(Br)cc(/C=C/C(=O)NCCCNCCCCCCCCNCCCNC(=O)/C=C/c2cc(Br)c(OC)c(Br)c2)cc1Br.O=C(O)C(F)(F)F.O=C(O)C(F)(F)F [Compound 16d, N^1,N^8-Bis(3-((E)-3-(3,5-dibromo-4-methoxyphenyl)acrylamido)propyl)octane-1,8-diaminium 2,2,2-trifluoroacetate] | > 178 | 5.57 | 44.5 | > 4 | ≤ 0.22 |  | 11.1 | 11 | > 28.5 | ≤0.22 | ≤ 0.22 | 22.3 | 0.5
7 | COc1c(Br)cc(/C=C/C(=O)NCCCNCCCCCCCNCCCNC(=O)/C=C/c2cc(Br)c(OC)c(Br)c2)cc1Br.O=C(O)C(F)(F)F.O=C(O)C(F)(F)F [Compound 16c, N^1,N^7-Bis(3-((E)-3-(3,5-dibromo-4-methoxyphenyl)acrylamido)propyl)heptane-1,7-diaminium 2,2,2-trifluoroacetate] | 180 | 5.64 |  | 16 | ≤ 0.23 |  | 11.3 | 22 | > 28.9 | 0.31 | ≤ 0.23 | 22.6 | 0.5
8 | O=C(C=Cc1ccccc1)NCCCNCCCCCCCNCCCNC(=O)C=Cc1ccccc1.O=C(O)C(F)(F)F.O=C(O)C(F)(F)F [Compound 13c, N^1,N^7-Bis(3-cinnamamidopropyl)heptane-1,7-diaminium 2,2,2-trifluoroacetate] | > 273 | > 273 | 68 | > 4 | > 43.7 |  | > 273 | > 43.7 | > 43.7 | >43.7 | > 43.7 | 136 | > 2
9 | COc1c(Br)cc(/C=C/C(=O)NCCCNCCCCCCCCCCNCCCNC(=O)/C=C/c2cc(Br)c(OC)c(Br)c2)cc1Br.O=C(O)C(F)(F)F.O=C(O)C(F)(F)F [Compound 16e, N^1,N^10-Bis(3-((E)-3-(3,5-dibromo-4-methoxyphenyl)acrylamido)propyl)decane-1,10-diaminium 2,2,2-trifluoroacetate] | 87 | 1.36 | 43.5 | 2 | ≤ 0.22 |  | 43.5 | 2 | 27.8 | 13.6 | ≤ 0.22 |  | 
10 | COc1ccc(/C=C/C(=O)NCCCNCCCCCCNCCCNC(=O)/C=C/c2ccc(OC)cc2)cc1.O=C(O)C(F)(F)F.O=C(O)C(F)(F)F [Compound 14b, N^1,N^6-Bis(3-((E)-3-(4-methoxyphenyl)acrylamido)propyl)hexane-1,6-diaminium 2,2,2-trifluoroacetate] | > 257 | 64.2 | 64 | > 4 | 41.1 |  | > 257 | > 41.1 | > 41.1 | >41.1 | ≤ 0.32 | 256 | > 1
